Assay results published in paper PMC5458626 (American heart journal, 2017).
Entries after “also recorded” stand apart in the source; their conditions may differ.

Experiments:
[1] = Adverse events; type: in vivo, human
[2] = Exercise stress test; type: in vivo, human; details: for Maximal VO2 at maximum exercise effort, follow-up measurement / VO2 at anaerobic threshold, follow-up measurement: day 5, mean ± SD
[3] = Echocardiography: myocardial performance index; type: in vivo, human; details: for Blood pool MPI, follow-up measurement / Tissue Doppler MPI, follow-up measurement: day 5; for Blood pool MPI, difference FU – BL: day 5 minus baseline (negative = improvement)
[4] = Vascular function by peripheral arterial tonometry; type: in vivo, human; details: for Augmentation Index adjusted to HR 75, follow-up measurement / Natural log of Reactive Hyperemic Index, follow-up measurement: day 5; for Natural log of Reactive Hyperemic Index, difference FU – BL: day 5 minus baseline (positive = improvement)
[5] = adult males, oral administration; ref [15]–[17]; cited from earlier work
[6] = Plasma pharmacokinetics of udenafil and DA-8164; details: for DA-8164 Cmax: plasma metabolite
[7] = test system: Phosphodiesterase Type 5 (PDE5); details: major circulating metabolite; ref [15]–[17]; cited from earlier work
[8] = total udenafil, all cohorts, N=30
[9] = udenafil 37.5 mg daily, 5 days, N=6
[10] = udenafil 37.5 mg twice daily, 5 days, N=6
[11] = udenafil 125 mg daily, 5 days, N=6
[12] = once-daily dosing, dose increased 3.3 times (37.5 to 125 mg)
[13] = oral udenafil 37.5 mg bid for five days, mean (%CV), N=6
[14] = oral udenafil 37.5 mg daily for five days, mean (%CV), N=6
[15] = oral udenafil 125 mg daily for five days, mean (%CV), N=6
[16] = metabolite, oral udenafil 37.5 mg bid for five days, mean (%CV), N=6
[17] = metabolite, oral udenafil 37.5 mg daily for five days, mean (%CV), N=6
[18] = metabolite, oral udenafil 125 mg daily for five days, mean (%CV), N=6
[19] = once-daily dosing, dose increased 3.3 times
[20] = twice-daily dosing, dose increased 2.3 times

## CCCOc1ccc(S(=O)(=O)NCCC2CCCN2C)cc1-c1nc2c(CCC)nn(C)c2c(=O)[nH]1 (stereo not shown) [udenafil]
[1]; 30 subjects, all cohorts
  Subjects with facial flushing possibly or probably related to study medication: 33%
  Subjects with nasal congestion possibly or probably related to study medication: 20%
  Subjects with nausea possibly or probably related to study medication: 10%
[1]; across the five dosing cohorts
  Dose dependence of reported AEs: did not increase with increasing dose
[1]; of 30 subjects exposed to udenafil, all cohorts
  Subjects with headache (most common AE): 19 subjects
[1]; of the 30 subjects, all cohorts
  Subjects with headache possibly or probably related to study drug: 63%
[1]; study period, all dosing cohorts
  Drug-related serious adverse events: No drug-related serious AEs; also recorded: no drug-related serious adverse events were reported
[1]; [8]
  Subjects who experienced drug-related (probably or possibly) adverse events: Headache: 19 (63) n (%)
  Subjects who experienced drug-related adverse events: Abdominal discomfort: 2 (7) n (%)
  Subjects who experienced drug-related adverse events: Back pain: 1 (3) n (%)
  Subjects who experienced drug-related adverse events: Flushing: 10 (33) n (%)
  Subjects who experienced drug-related adverse events: Nasal congestion: 6 (20) n (%)
  Subjects who experienced drug-related adverse events: Nausea: 3 (10) n (%)
[1]; [9]
  Subjects who experienced drug-related (probably or possibly) adverse events: Headache: 3 (50) n (%)
  Subjects who experienced drug-related adverse events: Abdominal discomfort: 0 (0) n (%)
  Subjects who experienced drug-related adverse events: Back pain: 0 (0) n (%)
  Subjects who experienced drug-related adverse events: Flushing: 1 (17) n (%)
  Subjects who experienced drug-related adverse events: Nasal congestion: 1 (17) n (%)
  Subjects who experienced drug-related adverse events: Nausea: 1 (17) n (%)
[1]; udenafil 37.5 mg daily, 5 days, N=6, male subjects only
  Subjects who experienced drug-related adverse events: Spontaneous penile erection: 0 (0) n (%)
[1]; [10]
  Subjects who experienced drug-related (probably or possibly) adverse events: Headache: 4 (67) n (%)
  Subjects who experienced drug-related adverse events: Abdominal discomfort: 0 (0) n (%)
  Subjects who experienced drug-related adverse events: Back pain: 0 (0) n (%)
  Subjects who experienced drug-related adverse events: Flushing: 2 (33) n (%)
  Subjects who experienced drug-related adverse events: Nasal congestion: 2 (33) n (%)
  Subjects who experienced drug-related adverse events: Nausea: 1 (17) n (%)
[1]; [11]
  Subjects who experienced drug-related (probably or possibly) adverse events: Headache: 4 (67) n (%)
  Subjects who experienced drug-related adverse events: Abdominal discomfort: 1 (17) n (%)
  Subjects who experienced drug-related adverse events: Back pain: 0 (0) n (%)
  Subjects who experienced drug-related adverse events: Flushing: 1 (17) n (%)
  Subjects who experienced drug-related adverse events: Nasal congestion: 1 (17) n (%)
  Subjects who experienced drug-related adverse events: Nausea: 0 (0) n (%)
[2]; all dosing cohorts, 5 days
  Effect on exercise performance (baseline to day 5): did not improve in any of the dosing cohorts
[2]; udenafil 37.5 mg BID, N=6
  Maximal VO2 at maximum exercise effort, follow-up measurement: 1.73 ± 0.486 L/h/kg
  VO2 at anaerobic threshold, follow-up measurement: 1.09 ± 0.18 L/h/kg
[2]; udenafil 37.5 mg QD, N=5
  Maximal VO2 at maximum exercise effort, follow-up measurement: 1.48 ± 0.402 L/h/kg
  VO2 at anaerobic threshold, follow-up measurement: 0.978 ± 0.12 L/h/kg
[2]; udenafil 125 mg QD, N=6
  Maximal VO2 at maximum exercise effort, follow-up measurement: 1.72 ± 0.228 L/h/kg
  VO2 at anaerobic threshold, follow-up measurement: 1.2 ± 0.192 L/h/kg
[3]; all udenafil subjects, N=28
  Blood pool MPI, follow-up measurement: 0.52±0.17
  Tissue Doppler MPI, follow-up measurement: 0.71±0.20
[3]; udenafil 37.5 mg BID, N=6
  Blood pool MPI, follow-up measurement: 0.49±0.087
  Tissue Doppler MPI, follow-up measurement: 0.73±0.23
  Blood pool MPI, difference FU – BL: −0.003±0.10
[3]; udenafil 37.5 mg QD, N=5
  Blood pool MPI, follow-up measurement: 0.50±0.19
  Tissue Doppler MPI, follow-up measurement: 0.64±0.21
  Blood pool MPI, difference FU – BL: −0.052±0.17
[3]; udenafil 125 mg QD, N=5
  Blood pool MPI, follow-up measurement: 0.70±0.20
  Tissue Doppler MPI, follow-up measurement: 0.82±0.27
  Blood pool MPI, difference FU – BL: −0.054±0.18
[3]; all udenafil subjects, N=27
  Blood pool MPI, difference FU – BL: −0.059±0.13
[4]; all dosing cohorts, 5 days
  Effect on lnRHI and AI (baseline to day 5): no discernible differences between paired baseline and follow-up measures of lnRHI or AI in any dosing cohort
[4]; all udenafil subjects, N=28
  Augmentation Index adjusted to HR 75, follow-up measurement: −2.18±13.91
  Natural log of Reactive Hyperemic Index, follow-up measurement: 0.49±0.28
[4]; udenafil 37.5 mg BID, N=6
  Augmentation Index adjusted to HR 75, follow-up measurement: 2.89±7.11
  Natural log of Reactive Hyperemic Index, follow-up measurement: 0.53±0.29
  Natural log of Reactive Hyperemic Index, difference FU – BL: −0.07±0.17
[4]; udenafil 37.5 mg QD, N=6
  Augmentation Index adjusted to HR 75, follow-up measurement: −0.62±23.82
  Natural log of Reactive Hyperemic Index, follow-up measurement: 0.51±0.26
  Natural log of Reactive Hyperemic Index, difference FU – BL: 0.03±0.47
[4]; udenafil 125 mg QD, N=6
  Augmentation Index adjusted to HR 75, follow-up measurement: 1.90±8.65
  Natural log of Reactive Hyperemic Index, follow-up measurement: 0.52±0.34
  Natural log of Reactive Hyperemic Index, difference FU – BL: −0.10±0.38
[4]; all udenafil subjects, N=27
  Natural log of Reactive Hyperemic Index, difference FU – BL: −0.02±0.30
[5]
  Udenafil terminal half-life: ~16 h
[6]; across the five dosing cohorts
  Dose dependence of oral clearance (CL/F): decreased with increasing dose
[6]; human, plasma, po, 37.5 mg, Udenafil Cmax, oral udenafil 37.5 mg bid for five days, mean (%CV), N=6
  Cmax: 0.152 µg/mL
[6]; male (N=17) vs female (N=13), oral udenafil 5 days
  Effect of gender on dose-normalized Cmax and Cavg: not different for the male and female patients
[6]; [12]
  Fold increase of mean udenafil AUC0−τ with dose: 4 fold
  Fold increase of mean udenafil Cmax with dose: 4.6 fold
[6]; [13]
  Udenafil CL/F (oral clearance): 39.9 (36) L/h
[6]; [14]
  Udenafil CL/F (oral clearance): 53.3 (40) L/h
[6]; [15]
  Udenafil CL/F (oral clearance): 43.3 (39) L/h

## CCCOc1ccc(S(N)(=O)=O)cc1-c1nc2c(CCC)nn(C)c2c(=O)[nH]1 [DA-8164]
[7]
  Potency of DA-8164 relative to udenafil: equipotent
[6]; metabolite, oral udenafil 37.5 mg bid for five days, N=6
  DA-8164 T½ (harmonic mean half-life, 0.693/mean kel): 14.1 h
[6]; [16]
  DA-8164 Cavg (AUC0−τ/τ): 108 (55) ng/mL
  DA-8164 Tmax: 2.1 (78) h
  DA-8164 kel: 0.0491 (16) h
[6]; metabolite, oral udenafil 37.5 mg bid for five days, τ = 12 hours, mean (%CV), N=6
  DA-8164 AUC0−τ: 1290 (55) ng*h/mL
[6]; metabolite, oral udenafil 37.5 mg daily for five days, N=6
  DA-8164 T½ (harmonic mean half-life, 0.693/mean kel): 14.6 h
[6]; [17]
  DA-8164 Cavg (AUC0−τ/τ): 36.7 (43) ng/mL
  DA-8164 Tmax: 3.1 (51) h
  DA-8164 kel: 0.0474 (34) h
[6]; metabolite, oral udenafil 125 mg daily for five days, N=6
  DA-8164 T½ (harmonic mean half-life, 0.693/mean kel): 14.5 h
[6]; [18]
  DA-8164 Cavg (AUC0−τ/τ): 145 (14) ng/mL
  DA-8164 Tmax: 3.8 (35) h
  DA-8164 kel: 0.0480 (17) h
[6]; [19]
  Fold increase of mean DA-8164 AUC0−τ with udenafil dose: 4 fold
  Fold increase of mean DA-8164 Cmax with udenafil dose: 4.2 fold
[6]; [13]
  DA-8164 Cmax: 159 (52) ng/mL
[6]; [14]
  DA-8164 Cmax: 61.3 (46) ng/mL
[6]; [15]
  DA-8164 Cmax: 256 (13) ng/mL
[6]; [20]
  Fold increase of mean DA-8164 AUC0−τ with udenafil dose: 1.9 fold
  Fold increase of mean DA-8164 Cmax with udenafil dose: 1.8 fold
